Data on ten compounds can be found in PMC5942373 (Beilstein Journal of Organic Chemistry, 2018).

In data set [1] the test system is CD13+ HT-1080 human fibrosarcoma cells. As to the kind of experiment: In vitro cytostatic/cytotoxic effect, PrestoBlue viability. In kind it is cell-based. The source says: (§1) Similarly to our previous study the antitumor effects of conjugates were examined in vitro on CD13+ HT-1080 human fibrosarcoma and on CD13− HT-29 human colon adenocarcinoma cells. Both cell types are integrin receptor positive. The effect of the new drug conjugates was compared with the toxicity of free Dau and our lead compound Dau=Aoa-GFLGK(c[KNGRE]-GG)-NH2 (K). The bioconjugates enter cancer cells most likely by receptor-mediated endocytosis (at least at lower micromolar concentration) followed by the release of the active metabolite Dau=Aoa-Gly-OH by lysosomal degradation. In contrast, free Dau enters the cells in an unspecific manner which might explain the lower antitumor effect of conjugates in comparison with the free drug. In this experiment we measured the cytostatic effect (6 h treatment and further 66 h incubation after washing out the compounds) and the cytotoxic effect (72 h treatment). The results are summarized in (Table 3). […] It seems that the replacement of Lys by the hydrophilic amino acid Ser is not favorite. However, the incorporation of hydrophobic amino acids was well accepted. The conjugate with bulky side chain in this position (Leu) had higher IC50 values that might be explained by sterical hindrance. […] The Nle containing conjugate presented similar activity on HT-1080 and higher activity on HT-29 cells compared to the control conjugate. It is worth mentioning that Nle has a linear hydrocarbon side chain with the same length as Lys, the amino functional group missing. To further characterize the biological activity of the conjugates, their lysosomal degradation and cellular uptake were studied.
(§2) HT-1080 was maintained in DMEM while HT-29 cells in RPMI (Sigma-Aldrich), respectively, supplemented with 10% FBS, 5 mmol/L glutamine, and 50 units/mL penicillin and streptomycin (Life Technologies). As described in [17] cells were seeded in 5000 cells/well density in 100 μL medium followed by an overnight incubation. The next day 100 μL of serially diluted drugs were added to the cells. For the measurements of cytostatic effect, drug containing medium was gently removed from the plates after 6 h incubation, fresh medium was added to each wells, and the plates were further incubated for additional 66 h (72 h in total). In the case of cytotoxicity measurements, the drug containing medium was on the cells for the full period of the 72 h assay. At 72 h, supernatant was removed from the cells, and viability was assessed by the PrestoBlue® reagent (Life Technologies), which was diluted in PBS to reach the concentration given in the manufacturer’s instruction.

Data set [2] deals with CD13- HT-29 human colon adenocarcinoma cells. The description is as above. Format: cell-based.
Source text: as §1, §2

For another data set, the system named is HT-29 cells. As to the kind of experiment: Cellular uptake by flow cytometry. In kind it is cell-based, human. The settings on record: 10 μM, 6 h, 37 °C; for Cellular uptake in HT-29 compared with HT-1080 cells: flow cytometry, comparison of the two cell lines; for Cellular uptake by HT-29 cells: FBS containing medium, flow cytometry (Dau fluorescence). The source says: (§3) Daunomycin is fluorescent therefore the cellular uptake of Dau containing conjugates can be followed by flow cytometry (Figure 2). The new conjugates were taken up by HT-29 cells in a higher amount than by HT-1080 cells. […] The low cytostatic/cytotoxic effects of conjugate 5 can be explained by the results of cellular uptake study.
(§4) Figure 2 (A) HT1080 and (B) HT-29 cells. Uptake of conjugate 1 (light green); 2 (red); 3 (light blue); 4 (pink); 5 (green); K (yellow). Empty control with purple color.
(§5) Analogous to the description in [17], prior to the treatment, HT-1080 and HT-29 cells were incubated overnight in cell culture medium (see above) followed by seeding at a 250.000 cells/well density. Peptide–drug conjugates were dissolved in FBS containing cell culture medium and added to the cells at 10 μM final concentration. After 6 h incubation at 37 °C the supernatant was removed, cells were washed with PBS and trypsinised with 0.1% trypsin (Gibco® by Life Technologies) for 10 minutes. Trypsinization was terminated with FBS containing medium, then cells were washed and suspended in serum free medium. For live/dead detection we used Zombie Violet reagent (Biolegend, San Diego CA). Samples were detected and analyzed by using an Attitude® Acoustic Focusing Cytometer (ThermoFischer Scientific).
Background: Flow cytometry measures light scatter and fluorescence of single cells or particles in a stream.

The nature of data set [3]: Chemostability (Asn deamidation) of cyclic NGR peptide-daunomycin conjugates in complete cell culture medium. Format: physicochemical. The note with it: DMEM CM (10% FBS complete medium), 2% DMSO, 1 mg/mL, 37 °C, HPLC-MS, area under the curve. The protocol:
The chemostability of cyclic NGR peptide–drug conjugates was studied under the treatment conditions used for the in vitro cytotoxicity experiments. Samples were taken at 0 min, 6 h and 72 h. The deamidation rate was evaluated by HPLC–MS. […] After 6 h, moderate rearrangement was observed which increased in time. However, 54–58% of the parent cyclic NGR conjugates were still intact after 72 h. […] Except deamidation no other decomposition could be observed during this study.
As described in [17] to check the chemical stability each of the drug conjugates were dissolved in DMSO (2% of the final volume), following the addition of 10% FBS (fetal bovine serum) containing complete cell culture medium (DMEM CM) up to the 1 mg/mL final concentration. Each conjugate was allowed to incubate at 37 °C. Samples were analyzed at experiment time of 0 h, 6 h and 72 h, respectively, and components were purified with Amicon Ultra Centrifugal Filters (cut off 10K Millipore). The membranes were washed with eluent A (HPLC), followed by 3 × 15 min centrifugation at 13000 rpm. The last step is the washing with eluent B (HPLC) 1 × 15 min, followed by lyophilization and concentration of the samples.

A further data set deals with HT-1080 cells. As to the kind of experiment: Cellular uptake by flow cytometry. In kind it is cell-based, human. The settings on record: 10 μM, 6 h, 37 °C, FBS containing medium; flow cytometry (Dau fluorescence).
Source text: as §3, §4, §5

Data set [4] in a line: Rat liver lysosomal homogenate. The note with it: 37 °C, up to 72 h.
Data set [5] in a line: 10% FBS (fetal bovine serum) containing complete cell culture medium (DMEM CM). The settings on record: 37 °C, up to 72 h.

“Also recorded” adds a separate entry of the source. Where two headings read alike, the source gives them in different places. Positions of bridges follow the written chain, without caps; N, C: chain ends. Residues, ends and D or L forms follow the SMILES beside them. Chains are numbered I, II in the order given. *: point of attachment. Daunorubicin(13-NOCH2CO) = COc1cccc2c1C(=O)c1c(O)c3c(c(O)c1C2=O)C[C@@](O)(C(C)=NOCC(=O)*)C[C@@H]3O[C@H]1C[C@H](N)[C@H](O)[C@H](C)O1

As for `COc1cccc2c1C(=O)c1c(O)c3c(c(O)c1C2=O)C[C@@](O)(C(C)=O)C[C@@H]3O[C@H]1C[C@H](N)[C@H](O)[C@H](C)O1` [Daunomycin], the half-maximal inhibitory concentration (IC50) (in general, the concentration needed to halve the response being measured) in data set [1] (HT-1080, 72 h, read-out: HT-1080 (72 h) IC50) was 500 ± 200 nM; in data set [1] (HT-1080, read-out: HT-1080 (6 h) IC50), 1400 ± 600 nM; in data set [2] (HT-29, 72 h, read-out: HT-29 (72 h) IC50) it was 100 ± 100 nM; in data set [2] (HT-29, read-out: HT-29 (6 h) IC50), 300 ± 200 nM.
Consider `COc1cccc2c1C(=O)c1c(O)c3c(c(O)c1C2=O)C[C@@](O)(C(C)=NOCC(=O)NCC(=O)N[C@@H](Cc1ccccc1)C(=O)N[C@@H](CC(C)C)C(=O)NCC(=O)N[C@@H](CCCCNC(=O)CNC(=O)CNC(=O)[C@@H]1CCC(=O)N[C@@H](CC(C)C)C(=O)N[C@@H](CC(N)=O)C(=O)NCC(=O)N[C@@H](CCCNC(=N)N)C(=O)N1)C(N)=O)C[C@@H]3O[C@H]1C[C@H](N)[C@H](O)[C@H](C)O1` [compound 2, Dau=Aoa-GFLGK(c[CONH-LNGRE]-GG)-NH2], for which the “Cellular uptake in HT-29 compared with HT-1080 cells” value in the data set with HT-29 cells was “significantly higher accumulation in HT-29 than in HT-1080 cells”.
`COc1cccc2c1C(=O)c1c(O)c3c(c(O)c1C2=O)C[C@@](O)(C(C)=NOCC(=O)NCC(=O)N[C@@H](Cc1ccccc1)C(=O)N[C@@H](CC(C)C)C(=O)NCC(=O)N[C@@H](CCCCNC(=O)CNC(=O)CNC(=O)[C@@H]1CCC(=O)N2CCC[C@H]2C(=O)N[C@@H](CC(N)=O)C(=O)NCC(=O)N[C@@H](CCCNC(=N)N)C(=O)N1)C(N)=O)C[C@@H]3O[C@H]1C[C@H](N)[C@H](O)[C@H](C)O1` [compound 4, Dau=Aoa-GFLGK(c[CONH-PNGRE]-GG)-NH2] (I: PNGREGG / II: {Daunorubicin(13-NOCH2CO)}-GFLGK-NH2; amide I:C-II:5; lactam I:N-I:5): in data set [3] (6 h), the “Ratio of Asn-/Asp-/isoAsp-derivatives: DGR” value was found to be 14% and the “Ratio of Asn-/Asp-/isoAsp-derivatives: isoDGR” value stood at 13%. In addition, in data set [3] (6 h, % printed in b14 only), the “Ratio of Asn-/Asp-/isoAsp-derivatives: NGR” value came out at 73%. Also, in data set [3] (72 h), the “Ratio of Asn-/Asp-/isoAsp-derivatives: DGR” value is listed as 46%, the “Ratio of Asn-/Asp-/isoAsp-derivatives: NGR” value came out at 19% and the “Ratio of Asn-/Asp-/isoAsp-derivatives: isoDGR” value stood at 35%. In the data set with HT-1080 cells, the “Cellular uptake by HT-1080 cells” value was “highest uptake”. For the same compound, in the data set with HT-29 cells, the “Cellular uptake by HT-29 cells” value is “highest uptake” and the “Cellular uptake in HT-29 compared with HT-1080 cells” value is “significantly higher accumulation in HT-29 than in HT-1080 cells”.
Consider `COc1cccc2c1C(=O)c1c(O)c3c(c(O)c1C2=O)C[C@@](O)(C(C)=NOCC(=O)NCC(=O)N[C@@H](Cc1ccccc1)C(=O)N[C@@H](CC(C)C)C(=O)NCC(=O)N[C@@H](CCCCNC(=O)CNC(=O)CNC(=O)[C@@H]1CCC(=O)N[C@@H](CO)C(=O)N[C@@H](CC(N)=O)C(=O)NCC(=O)N[C@@H](CCCNC(=N)N)C(=O)N1)C(N)=O)C[C@@H]3O[C@H]1C[C@H](N)[C@H](O)[C@H](C)O1` [compound 5, Dau=Aoa-GFLGK(c[CONH-SNGRE]-GG)-NH2], for which the “Cellular uptake by HT-1080 cells” value in the data set with HT-1080 cells is on record as “did not enter”. In addition, the “Cellular uptake by HT-29 cells” value in the data set on HT-29 cells is “slightly higher cellular uptake”.
As to Dau=Aoa-GFLGK(c[CONH-ANGRE]-GG)-NH2, the cleaved bond entry in data set [4] is on record as “Gly-Phe, major, 6 h”. In data set [5], the fragment found entry was “isoDGR, 6 h; also recorded: DGR, 72 h”.
As to Dau=Aoa-GFLGK(c[CONH-KNGRE]-GG)-NH2, the not cleaved in data set [5] was 100% NGR form at 72 h.
Turning to Dau=Aoa-GFLGK(c[CONH-LNGRE]-GG)-NH2, the cleaved bond result in data set [4] is on record as “Gly-Phe, major, 6 h”. The fragment found result in data set [5] is given as “isoDGR, 6 h; also recorded: DGR, 72 h”.
On to Dau=Aoa-GFLGK(c[CONH-NleNGRE]-GG)-NH2, for which the cleaved bond entry in data set [4] is recorded as “Gly-Phe, major, 6 h”. Moreover, the fragment found result in data set [5] is “isoDGR, 6 h; also recorded: DGR, 6 h”.
Regarding Dau=Aoa-GFLGK(c[CONH-PNGRE]-GG)-NH2, in data set [4], the cleaved bond result was “Gly-Phe, major, 6 h”. Besides, the fragment found result in data set [5] is reported as “isoDGR, 6 h; also recorded: DGR, 6 h”.
Turning to Dau=Aoa-GFLGK(c[CONH-SNGRE]-GG)-NH2, the cleaved bond entry in data set [4] is “Gly-Phe, major, 6 h”. The fragment found entry in data set [5] is recorded as “DGR, 72 h; also recorded: isoDGR, 6 h”.
